Reference: ChEMBL document CHEMBL1201862, “PubChem BioAssay data set” (2004)
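Briefly, cells in 96-well plates were exposed to five compound concentrations for 48 h, and endpoints were estimated by linear interpolation. At the GI50, growth is halved.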 The source made the active and inactive calls. Cut-off read from the data, not from the text of the source: active = GI50 up to about 1.1 µM and inactive = higher.

Tests used:
Assay in all cases: NCI tumour cell line growth inhibition, 48 h
DU-145 = test system: DU-145
SR = test system: SR
UACC-257 = test system: UACC-257
Hs-578T = test system: Hs-578T
NCI-H460 = test system: NCI-H460
OVCAR-8 = test system: OVCAR-8
RXF 393 = test system: RXF 393
SW-620 = test system: SW-620
A549 = test system: A549
MDA-MB-435 = test system: MDA-MB-435
CCRF-CEM = test system: CCRF-CEM
Malme-3M = test system: Malme-3M
HL-60 = test system: HL-60
ACHN = test system: ACHN
LOX IMVI = test system: LOX IMVI
BT-549 = test system: BT-549
NCI-H522 = test system: NCI-H522
SNB-75 = test system: SNB-75
SK-MEL-28 = test system: SK-MEL-28
EKVX = test system: EKVX

Compound	GI50 (DU-145)	GI50 (SR)	GI50 (UACC-257)	GI50 (Hs-578T)	GI50 (NCI-H460)	GI50 (OVCAR-8)	GI50 (RXF 393)	GI50 (SW-620)	GI50 (A549)	GI50 (MDA-MB-435)	GI50 (CCRF-CEM)	GI50 (Malme-3M)	GI50 (HL-60)	GI50 (ACHN)	GI50 (LOX IMVI)	GI50 (BT-549)	GI50 (NCI-H522)	GI50 (SNB-75)	GI50 (SK-MEL-28)	GI50 (EKVX)
CCOC(=O)c1nc2cc(F)c(F)cc2nc1NCc1cc(OC)c(OC)c(OC)c1	> 100 µM (inactive)	> 100 µM (inactive)	> 100 µM (inactive)	50.7 µM (inactive)	> 100 µM (inactive)	> 100 µM (inactive)	30.1 µM (inactive)	> 100 µM (inactive)	> 100 µM (inactive)	> 100 µM (inactive)	> 100 µM (inactive)	> 100 µM (inactive)	> 100 µM (inactive)	> 100 µM (inactive)	> 100 µM (inactive)	> 100 µM (inactive)	> 100 µM (inactive)	16.5 µM (inactive)	> 100 µM (inactive)	> 100 µM (inactive)
CN(C)/C=N/S(=O)(=O)c1nn2c(C=O)c(-c3ccc(-c4ccccc4)cc3)nc2s1	2.4 µM (inactive)	0.49 µM (active)	2.97 µM (inactive)	3.09 µM (inactive)	5.51 µM (inactive)	5.28 µM (inactive)	1.71 µM (inactive)	0.724 µM (active)	11.5 µM (inactive)	1.69 µM (inactive)	0.145 µM (active)	1.32 µM (inactive)	0.141 µM (active)	1.57 µM (inactive)	0.753 µM (active)	0.83 µM (active)	0.385 µM (active)	4.12 µM (inactive)	1.98 µM (inactive)	5.89 µM (inactive)
COc1cc2c(cc1OCCCOc1cc3c(cc1OC)C(=O)N1CCC[C@H]1CN3)N=C[C@@H]1CCCN1C2=O	0.357 µM (active)	< 0.01 µM (active)	0.206 µM (active)	0.267 µM (active)	0.228 µM (active)	0.232 µM (active)	0.0497 µM (active)	0.127 µM (active)	0.7 µM (active)	0.117 µM (active)	< 0.01 µM (active)	0.115 µM (active)	0.0291 µM (active)	0.0986 µM (active)	0.0371 µM (active)	0.0802 µM (active)	< 0.0127 µM (active)	0.179 µM (active)	0.202 µM (active)	1.89 µM (inactive)
COC(=O)C1=C(C(=O)Nc2cccnc2Cl)N(c2ccc(OC)cc2[N+](=O)[O-])C(c2ccc(C)cc2)=CC1c1ccc(OC)cc1OC (stereo not given)	23 µM (inactive)	2.85 µM (inactive)	25.8 µM (inactive)	25.3 µM (inactive)	23.9 µM (inactive)	8.79 µM (inactive)	3.13 µM (inactive)	4.66 µM (inactive)	6.3 µM (inactive)	5.64 µM (inactive)	4.53 µM (inactive)	12.6 µM (inactive)	4.61 µM (inactive)	19.1 µM (inactive)	2.82 µM (inactive)	8.85 µM (inactive)	2.59 µM (inactive)	14.2 µM (inactive)	59.6 µM (inactive)	21.9 µM (inactive)
CCCCCCCCCCCCCCCCCCOC(COP(=O)(O)OCC1OC(n2cc(F)c(=O)[nH]c2=O)CC1O)COP(=O)(O)OCC1OC(n2ccc(N)nc2=O)C(O)C1O (stereo not given)	3.33 µM (inactive)	0.925 µM (active)	> 79.3 µM (inactive)	> 100 µM (inactive)	0.159 µM (active)	4.51 µM (inactive)	16.4 µM (inactive)	60.7 µM (inactive)	2.81 µM (inactive)	19.5 µM (inactive)	4.81 µM (inactive)	> 68.9 µM (inactive)	3.66 µM (inactive)	0.474 µM (active)	1.14 µM (inactive)	18.5 µM (inactive)	> 40.2 µM (inactive)	22.6 µM (inactive)	64.6 µM (inactive)	> 100 µM (inactive)
Cc1cc2c(O)nc(N)nc2nc1C	> 100 µM (inactive)	> 100 µM (inactive)	> 100 µM (inactive)	> 100 µM (inactive)	> 100 µM (inactive)	> 100 µM (inactive)	> 100 µM (inactive)	> 100 µM (inactive)	> 100 µM (inactive)	> 100 µM (inactive)	> 100 µM (inactive)	> 100 µM (inactive)	> 100 µM (inactive)	> 100 µM (inactive)	> 100 µM (inactive)	> 100 µM (inactive)	> 100 µM (inactive)	> 100 µM (inactive)	> 100 µM (inactive)	> 100 µM (inactive)
O=C(O)/C=C/c1c2ccc(=O)c(O)c-2oc2c(O)c(O)ccc12	> 100 µM (inactive)	31.8 µM (inactive)	> 100 µM (inactive)	58.6 µM (inactive)	> 100 µM (inactive)	40.1 µM (inactive)	> 100 µM (inactive)	20.7 µM (inactive)	32.3 µM (inactive)	17.4 µM (inactive)	9.59 µM (inactive)	> 100 µM (inactive)	82.2 µM (inactive)	30.8 µM (inactive)	23 µM (inactive)	83.9 µM (inactive)	> 100 µM (inactive)	48 µM (inactive)	> 100 µM (inactive)	24.9 µM (inactive)
CC(NC(=O)/C(=C/c1ccccc1)NC(=O)c1ccccc1)C(=O)O (stereo not given)	> 100 µM (inactive)	37.6 µM (inactive)	> 100 µM (inactive)	88.3 µM (inactive)	> 100 µM (inactive)	50 µM (inactive)	> 100 µM (inactive)	> 100 µM (inactive)	> 100 µM (inactive)	38.8 µM (inactive)	> 100 µM (inactive)	> 100 µM (inactive)	77.1 µM (inactive)	38.6 µM (inactive)	25.2 µM (inactive)	> 100 µM (inactive)	> 100 µM (inactive)	24.1 µM (inactive)	> 100 µM (inactive)	40.4 µM (inactive)
Nc1nc(=S)n(-c2ccc(Cl)cc2)c2nc3ccccc3cc12	43.6 µM (inactive)	16.1 µM (inactive)	> 100 µM (inactive)	83.2 µM (inactive)	46.2 µM (inactive)	50.1 µM (inactive)	57.9 µM (inactive)	95.5 µM (inactive)	97.7 µM (inactive)	80.4 µM (inactive)	42.4 µM (inactive)	32.5 µM (inactive)	> 100 µM (inactive)	18.8 µM (inactive)	44.1 µM (inactive)	19.1 µM (inactive)	45.3 µM (inactive)	43.5 µM (inactive)	> 100 µM (inactive)	15.3 µM (inactive)
CCCC1=C(OC)C(=O)c2c(C)cc(Cl)nc2C1=O	15.1 µM (inactive)	2.11 µM (inactive)	6.53 µM (inactive)	3.75 µM (inactive)	13.7 µM (inactive)	8.89 µM (inactive)	7.67 µM (inactive)	3.24 µM (inactive)	13.6 µM (inactive)	1.84 µM (inactive)	0.286 µM (active)	3.02 µM (inactive)	1.45 µM (inactive)	6.92 µM (inactive)	2.01 µM (inactive)	13.6 µM (inactive)	2.43 µM (inactive)	7.62 µM (inactive)	6.81 µM (inactive)	7.66 µM (inactive)
CCc1c(-c2ccc(OC)cc2)c(=O)oc2cc(O)ccc12	33.2 µM (inactive)	16.7 µM (inactive)	25.9 µM (inactive)	30.7 µM (inactive)	23.9 µM (inactive)	49.1 µM (inactive)	54.5 µM (inactive)	51.3 µM (inactive)	27.3 µM (inactive)	27.6 µM (inactive)	27.4 µM (inactive)	25.5 µM (inactive)	16.7 µM (inactive)	27.7 µM (inactive)	30.1 µM (inactive)	25.1 µM (inactive)	29.5 µM (inactive)	73.3 µM (inactive)	36.7 µM (inactive)	29.4 µM (inactive)
O=c1[nH]c2nccn2c(Cl)c1Br	83.8 µM (inactive)	22.4 µM (inactive)	16.4 µM (inactive)	26.9 µM (inactive)	24.7 µM (inactive)	19.2 µM (inactive)	1.94 µM (inactive)	26.6 µM (inactive)	> 100 µM (inactive)	19.8 µM (inactive)	20.5 µM (inactive)	20 µM (inactive)	17.2 µM (inactive)	29.9 µM (inactive)	18 µM (inactive)	18.7 µM (inactive)	14.6 µM (inactive)	33.7 µM (inactive)	19.4 µM (inactive)	19.7 µM (inactive)
COC(=O)c1c(O)ccc2c1c1c(n2Cc2ccccc2)C(=O)c2ccccc2C1=O	18.3 µM (inactive)	15.6 µM (inactive)	17.6 µM (inactive)	18.5 µM (inactive)	10.7 µM (inactive)	12.2 µM (inactive)	14.1 µM (inactive)	19.2 µM (inactive)	7.76 µM (inactive)	13 µM (inactive)	15 µM (inactive)	28.8 µM (inactive)	18.3 µM (inactive)	12.2 µM (inactive)	15.6 µM (inactive)	16.6 µM (inactive)	11 µM (inactive)	15.6 µM (inactive)	17.5 µM (inactive)	20.6 µM (inactive)
Cc1cc(C)c2c(=N)c3ccccc3n(CCCCCCCCn3c4ccccc4c(=N)c4c(C)cc(C)nc43)c2n1	1.64 µM (inactive)	0.127 µM (active)	1.75 µM (inactive)	1.81 µM (inactive)	0.184 µM (active)	1.59 µM (inactive)	1.32 µM (inactive)	0.238 µM (active)	1.38 µM (inactive)	1.54 µM (inactive)	0.204 µM (active)	1.74 µM (inactive)	0.433 µM (active)	1.56 µM (inactive)	0.515 µM (active)	1.85 µM (inactive)	1.38 µM (inactive)	0.596 µM (active)	1.6 µM (inactive)	1.4 µM (inactive)
